What was measured:
Details in all cases: compound at 10 μM
Human δ-opioid (DOP) = molecular target: T1, Human δ-opioid (DOP) (Homo sapiens, UniProt P41143); experiment: Radioligand binding, human δ-opioid (DOP) membranes, FlashPlate, [3H]-Bremazocine
T1 construct: purchased Perkin Elmer Biosignal
Summary of the method: (§1)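 Cloned human receptor membranes were coated onto FlashPlate wells and incubated with radioligand and compound (added from a 0.5 mM DMSO daughter plate) for 1 hour at room temperature in the dark. Scintillation counting gave percent inhibition, with DMSO defining total and reference ligand defining non-specific binding.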

Human κ-Opioid (KOP) = molecular target: T2, Human κ-Opioid (KOP) (Homo sapiens, UniProt P41145); experiment: Radioligand binding, human κ-opioid (KOP) membranes, filtration, [3H]-Diprenorphine
T2 construct: purchased Perkin Elmer Biosignal
Summary of the method: (§2)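 Membranes from cloned human receptors were incubated with compound and radioligand for 1 hour at room temperature. Bound ligand was collected on 0.3% PEI-soaked filters, washed with cold 50 mM Tris-HCl pH 7.4, and counted by scintillation. Percent inhibition was computed against DMSO totals and reference-ligand nonspecific wells.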

Human Melanocortin (MC3) = molecular target: T3, Human Melanocortin (MC3) (Homo sapiens, UniProt P41968); experiment: Radioligand binding, human melanocortin MC3 membranes, FlashPlate, [125I]-NDP-αMSH
T3 construct: purchased Perkin Elmer Biosignal
Summary of the method: as §1

Human Melanocortin (MC4) = molecular target: T4, Human Melanocortin (MC4) (Homo sapiens, UniProt P32245); experiment: Radioligand binding, human melanocortin MC4 membranes, FlashPlate, [125I]-NDP-αMSH
T4 construct: purchased Perkin Elmer Biosignal
Summary of the method: as §1

Human melanocortin (MC5) = molecular target: T5, Human melanocortin (MC5) (Homo sapiens, UniProt P33032); experiment: Radioligand binding, human melanocortin MC5 membranes, FlashPlate, [125I]-NDP-αMSH
T5 construct: purchased Perkin Elmer Biosignal
Summary of the method: as §1

[1] = molecular target: T6, Human melanin-concentrating hormone (MCH1) (Homo sapiens, UniProt Q99705); experiment: Radioligand binding, human melanin-concentrating hormone MCH1 membranes, FlashPlate, [125I]-S36057
T6 construct: purchased Perkin Elmer Biosignal
Summary of the method: as §1

Human μ-opioid (MOP) = molecular target: T7, Human μ-opioid (MOP) (Homo sapiens, UniProt P35372); experiment: Radioligand binding, human μ-opioid (MOP) membranes, FlashPlate, [3H]-Naloxone
T7 construct: purchased Perkin Elmer Biosignal
Summary of the method: as §1

Human neurokinin (NK1) = molecular target: T8, Human neurokinin (NK1) (Homo sapiens, UniProt P25103); experiment: Radioligand binding, human neurokinin NK1 membranes, filtration, [125I]-Substance P
T8 construct: purchased Perkin Elmer Biosignal
Summary of the method: as §2

[2] = molecular target: T9, Human neuropeptide Y (NPY-Y1) (Homo sapiens, UniProt P25929); experiment: Radioligand binding, human neuropeptide Y NPY-Y1 membranes, FlashPlate, [125I]-PYY
T9 construct: purchased Perkin Elmer Biosignal
T9 sequence (P25929 1-384): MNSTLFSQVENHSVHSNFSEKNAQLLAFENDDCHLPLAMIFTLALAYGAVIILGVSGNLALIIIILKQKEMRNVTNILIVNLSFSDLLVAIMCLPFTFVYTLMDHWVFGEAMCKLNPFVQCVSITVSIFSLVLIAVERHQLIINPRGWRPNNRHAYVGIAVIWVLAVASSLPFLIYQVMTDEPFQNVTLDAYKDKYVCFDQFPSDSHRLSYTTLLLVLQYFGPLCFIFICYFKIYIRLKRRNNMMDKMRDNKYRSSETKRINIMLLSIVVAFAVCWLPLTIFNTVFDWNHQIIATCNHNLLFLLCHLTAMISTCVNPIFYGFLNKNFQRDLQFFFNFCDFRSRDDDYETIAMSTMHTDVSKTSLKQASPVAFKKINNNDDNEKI
Summary of the method: as §1

Human opioid (ORL1) = molecular target: T10, Human opioid (ORL1) (Homo sapiens, UniProt P41146); experiment: Radioligand binding, human opioid ORL1 membranes, FlashPlate, [125I]-Nociceptin
T10 construct: purchased Perkin Elmer Biosignal
Summary of the method: as §1

Mouse urotensin (mUR2) = molecular target: T11, Mouse urotensin (mUR2) (Mus musculus, UniProt Q8VIH9); experiment: Radioligand binding, mouse urotensin mUR2 membranes, FlashPlate, [125I]-Urotensin II
T11 construct: purchased Perkin Elmer Biosignal
T11 sequence (Q8VIH9 1-385): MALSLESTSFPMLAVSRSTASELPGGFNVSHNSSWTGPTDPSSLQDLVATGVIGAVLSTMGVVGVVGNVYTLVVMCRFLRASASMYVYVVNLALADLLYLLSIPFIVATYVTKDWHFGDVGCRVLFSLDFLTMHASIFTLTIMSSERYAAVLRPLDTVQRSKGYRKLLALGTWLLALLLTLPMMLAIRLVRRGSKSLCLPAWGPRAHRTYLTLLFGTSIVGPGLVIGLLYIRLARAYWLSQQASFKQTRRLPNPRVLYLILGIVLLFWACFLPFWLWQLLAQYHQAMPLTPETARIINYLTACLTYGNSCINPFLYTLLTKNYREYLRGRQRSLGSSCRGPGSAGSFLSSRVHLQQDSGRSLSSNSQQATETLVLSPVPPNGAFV
Summary of the method: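 Cloned mouse urotensin (mUR2) receptor membranes from Perkin Elmer Biosignal were immobilized in FlashPlate microplates using a proprietary coating. Each well got 19.5 μl buffer, then 0.5 μl of DMSO, reference ligand, or compound. Adding 5 μl of [125I]-Urotensin II, diluted to 5× final concentration in binding buffer, started binding. Plates were sealed with TopSeal-A and incubated 1 hour at room temperature in the dark. Wells were counted for 30 seconds each on a TopCount after a 60-second delay, and percentage inhibition was calculated.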

T6 sequence (Q99705 whole entry): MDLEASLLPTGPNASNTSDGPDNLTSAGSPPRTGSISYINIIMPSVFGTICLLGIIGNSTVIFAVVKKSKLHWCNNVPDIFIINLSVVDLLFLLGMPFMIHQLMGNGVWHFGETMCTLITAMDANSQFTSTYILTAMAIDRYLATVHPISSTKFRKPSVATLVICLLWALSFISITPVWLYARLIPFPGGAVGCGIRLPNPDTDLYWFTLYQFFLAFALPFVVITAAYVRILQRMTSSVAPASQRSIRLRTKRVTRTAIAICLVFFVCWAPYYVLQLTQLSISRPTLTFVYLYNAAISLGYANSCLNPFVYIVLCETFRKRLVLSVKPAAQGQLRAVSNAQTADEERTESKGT
T3 sequence (P41968 whole entry): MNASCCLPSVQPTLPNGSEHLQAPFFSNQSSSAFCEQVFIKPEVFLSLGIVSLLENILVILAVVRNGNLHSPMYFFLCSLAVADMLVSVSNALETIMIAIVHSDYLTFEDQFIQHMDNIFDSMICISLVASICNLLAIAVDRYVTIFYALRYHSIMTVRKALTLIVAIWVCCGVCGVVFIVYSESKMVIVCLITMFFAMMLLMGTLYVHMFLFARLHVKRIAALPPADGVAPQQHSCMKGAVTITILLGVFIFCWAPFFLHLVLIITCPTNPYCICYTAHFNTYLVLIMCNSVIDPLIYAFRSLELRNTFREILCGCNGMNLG
T1 sequence (P41143 whole entry): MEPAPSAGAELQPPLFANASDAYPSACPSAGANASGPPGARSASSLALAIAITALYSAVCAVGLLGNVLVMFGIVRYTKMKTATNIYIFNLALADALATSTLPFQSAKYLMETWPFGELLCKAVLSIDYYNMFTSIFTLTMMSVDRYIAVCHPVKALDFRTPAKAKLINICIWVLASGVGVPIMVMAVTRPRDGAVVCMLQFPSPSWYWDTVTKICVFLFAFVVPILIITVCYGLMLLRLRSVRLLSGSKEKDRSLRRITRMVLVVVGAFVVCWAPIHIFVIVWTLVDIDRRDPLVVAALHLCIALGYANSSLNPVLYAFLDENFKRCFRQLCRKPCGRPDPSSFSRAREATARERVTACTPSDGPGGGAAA
T7 sequence (P35372 whole entry): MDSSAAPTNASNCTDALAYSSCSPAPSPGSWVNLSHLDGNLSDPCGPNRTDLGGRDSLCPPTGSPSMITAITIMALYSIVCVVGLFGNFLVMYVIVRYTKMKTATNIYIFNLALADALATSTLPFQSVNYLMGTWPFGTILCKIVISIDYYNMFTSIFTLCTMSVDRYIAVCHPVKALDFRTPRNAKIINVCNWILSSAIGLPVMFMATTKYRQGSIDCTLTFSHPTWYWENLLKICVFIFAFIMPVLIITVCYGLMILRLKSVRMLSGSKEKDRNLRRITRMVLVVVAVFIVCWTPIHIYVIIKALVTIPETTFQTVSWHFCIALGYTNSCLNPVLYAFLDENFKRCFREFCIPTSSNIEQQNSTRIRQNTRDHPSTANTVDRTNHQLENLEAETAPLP
T5 sequence (P33032 whole entry): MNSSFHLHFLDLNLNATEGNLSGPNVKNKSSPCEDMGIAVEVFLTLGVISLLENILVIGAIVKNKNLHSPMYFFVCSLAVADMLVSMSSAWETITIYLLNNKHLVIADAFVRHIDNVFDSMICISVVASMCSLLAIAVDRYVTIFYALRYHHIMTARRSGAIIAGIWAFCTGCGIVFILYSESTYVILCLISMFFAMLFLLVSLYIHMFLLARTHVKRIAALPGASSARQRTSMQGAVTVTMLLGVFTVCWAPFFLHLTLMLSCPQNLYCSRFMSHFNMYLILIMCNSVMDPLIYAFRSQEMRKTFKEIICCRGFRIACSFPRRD
T10 sequence (P41146 whole entry): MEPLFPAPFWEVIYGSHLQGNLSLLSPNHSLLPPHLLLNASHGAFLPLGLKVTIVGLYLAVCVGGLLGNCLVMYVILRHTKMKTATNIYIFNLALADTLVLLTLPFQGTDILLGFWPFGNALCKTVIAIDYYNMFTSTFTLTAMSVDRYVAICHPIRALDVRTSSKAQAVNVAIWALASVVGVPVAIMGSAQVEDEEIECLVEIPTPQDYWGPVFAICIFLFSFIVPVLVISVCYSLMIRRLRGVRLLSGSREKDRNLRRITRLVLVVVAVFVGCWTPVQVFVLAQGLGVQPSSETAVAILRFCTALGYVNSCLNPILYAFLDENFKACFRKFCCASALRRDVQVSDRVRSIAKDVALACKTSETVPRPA
T4 sequence (P32245 whole entry): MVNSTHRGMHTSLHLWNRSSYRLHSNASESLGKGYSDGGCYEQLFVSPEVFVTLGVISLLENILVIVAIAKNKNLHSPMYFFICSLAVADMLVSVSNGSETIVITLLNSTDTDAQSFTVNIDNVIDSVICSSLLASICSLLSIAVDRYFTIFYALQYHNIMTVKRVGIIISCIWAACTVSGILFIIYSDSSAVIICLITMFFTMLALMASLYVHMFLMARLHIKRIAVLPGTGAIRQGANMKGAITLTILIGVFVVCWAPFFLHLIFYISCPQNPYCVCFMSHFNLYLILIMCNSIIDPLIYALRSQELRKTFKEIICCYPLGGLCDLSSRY
T8 sequence (P25103 whole entry): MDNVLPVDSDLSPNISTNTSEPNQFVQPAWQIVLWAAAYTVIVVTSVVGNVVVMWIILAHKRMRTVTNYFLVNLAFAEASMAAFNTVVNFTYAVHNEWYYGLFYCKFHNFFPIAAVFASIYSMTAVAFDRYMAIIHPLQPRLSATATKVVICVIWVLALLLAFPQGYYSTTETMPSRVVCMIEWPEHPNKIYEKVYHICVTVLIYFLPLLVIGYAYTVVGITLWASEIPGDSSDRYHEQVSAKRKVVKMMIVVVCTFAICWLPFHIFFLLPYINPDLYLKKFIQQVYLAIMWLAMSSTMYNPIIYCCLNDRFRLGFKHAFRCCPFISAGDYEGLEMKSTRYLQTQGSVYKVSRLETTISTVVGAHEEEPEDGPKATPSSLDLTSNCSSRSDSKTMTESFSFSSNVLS
T2 sequence (P41145 whole entry): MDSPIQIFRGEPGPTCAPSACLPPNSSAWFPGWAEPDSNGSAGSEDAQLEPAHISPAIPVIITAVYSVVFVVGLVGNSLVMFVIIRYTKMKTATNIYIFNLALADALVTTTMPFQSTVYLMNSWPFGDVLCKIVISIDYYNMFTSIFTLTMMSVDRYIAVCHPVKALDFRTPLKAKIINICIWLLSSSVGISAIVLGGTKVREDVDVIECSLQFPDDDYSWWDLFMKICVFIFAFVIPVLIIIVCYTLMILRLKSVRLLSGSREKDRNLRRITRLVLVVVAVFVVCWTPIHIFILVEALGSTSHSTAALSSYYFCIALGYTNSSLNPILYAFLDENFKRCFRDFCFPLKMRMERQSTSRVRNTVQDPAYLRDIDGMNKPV

## COCC1OC(OCc2ccccc2)C(NC(=O)CCCNC(=N)N)C(OCc2ccc3ccccc3c2)C1O (stereo not drawn) [compound 193]
Human δ-opioid (DOP); [3H]-Bremazocine, FlashPlate
  A1: inhibition of radioligand binding: − (“−” indicates less than 50% inhibition at 10 μM)
Human κ-Opioid (KOP); [3H]-Diprenorphine, filtration
  A2: inhibition of radioligand binding: − (“−” indicates less than 50% inhibition at 10 μM)
Human Melanocortin (MC3); [125I]-NDP-αMSH, FlashPlate
  A3: inhibition of radioligand binding: + (“+” indicates greater than 50% inhibition at 10 μM)
Human Melanocortin (MC4); [125I]-NDP-αMSH, FlashPlate
  A4: inhibition of radioligand binding: + (“+” indicates greater than 50% inhibition at 10 μM)
Human melanocortin (MC5); [125I]-NDP-αMSH, FlashPlate
  A5: inhibition of radioligand binding: + (“+” indicates greater than 50% inhibition at 10 μM)
[1]; [125I]-S36057, FlashPlate
  A6: inhibition of radioligand binding: + (“+” indicates greater than 50% inhibition at 10 μM)
Human μ-opioid (MOP); [3H]-Naloxone, FlashPlate
  A7: inhibition of radioligand binding: − (“−” indicates less than 50% inhibition at 10 μM)
Human neurokinin (NK1); [125I]-Substance P, filtration
  A8: inhibition of radioligand binding: + (“+” indicates greater than 50% inhibition at 10 μM)
[2]; [125I]-PYY, FlashPlate
  A9: inhibition of radioligand binding: − (“−” indicates less than 50% inhibition at 10 μM)
Human opioid (ORL1); [125I]-Nociceptin, FlashPlate
  A10: inhibition of radioligand binding: − (“−” indicates less than 50% inhibition at 10 μM)
Mouse urotensin (mUR2); [125I]-Urotensin II, FlashPlate
  A11: inhibition of radioligand binding: − (“−” indicates less than 50% inhibition at 10 μM)

## COC[C@H]1OC(OCc2ccc(-c3ccccc3)cc2)[C@H](NC(=O)CCNC(=N)N)[C@@H](OCc2ccc(Cl)cc2)[C@@H]1O (stereo partly drawn) [compound 11]
Human δ-opioid (DOP); human δ-opioid (DOP) membranes
  A1 radioligand binding inhibition: + (“+” indicates greater than 50% inhibition at 10 μM)
Human κ-Opioid (KOP); human κ-opioid (KOP) membranes
  A2 radioligand binding inhibition: + (“+” indicates greater than 50% inhibition at 10 μM)
Human Melanocortin (MC3); human melanocortin MC3 membranes
  A3 radioligand binding inhibition: − (“−” indicates less than 50% inhibition at 10 μM)
Human Melanocortin (MC4); human melanocortin MC4 membranes
  A4 radioligand binding inhibition: + (“+” indicates greater than 50% inhibition at 10 μM)
Human melanocortin (MC5); human melanocortin MC5 membranes
  A5 radioligand binding inhibition: + (“+” indicates greater than 50% inhibition at 10 μM)
[1]; human MCH1 membranes
  A6 radioligand binding inhibition: + (“+” indicates greater than 50% inhibition at 10 μM)
Human μ-opioid (MOP); human μ-opioid (MOP) membranes
  A7 radioligand binding inhibition: + (“+” indicates greater than 50% inhibition at 10 μM)
Human neurokinin (NK1); human neurokinin NK1 membranes
  A8 radioligand binding inhibition: + (“+” indicates greater than 50% inhibition at 10 μM)
[2]; human NPY-Y1 membranes
  A9 radioligand binding inhibition: − (“−” indicates less than 50% inhibition at 10 μM)
Human opioid (ORL1); human ORL1 membranes
  A10 radioligand binding inhibition: − (“−” indicates less than 50% inhibition at 10 μM)
Mouse urotensin (mUR2); mouse urotensin mUR2 membranes
  A11 radioligand binding inhibition: − (“−” indicates less than 50% inhibition at 10 μM)

## CO[C@H]1[C@H](O)[C@@H](COCc2cccc(O)c2)OC(OCc2ccc3ccccc3c2)[C@@H]1NC(=O)CCNC(=N)N (stereo partly drawn) [compound 151]
Human δ-opioid (DOP); [3H]-Bremazocine
  A1 radioligand binding, percentage inhibition: − (“−” indicates less than 50% inhibition at 10 μM)
Human κ-Opioid (KOP); [3H]-Diprenorphine
  A2 radioligand binding, percentage inhibition: − (“−” indicates less than 50% inhibition at 10 μM)
Human Melanocortin (MC3); [125I]-NDP-αMSH
  A3 radioligand binding, percentage inhibition: − (“−” indicates less than 50% inhibition at 10 μM)
Human Melanocortin (MC4); [125I]-NDP-αMSH
  A4 radioligand binding, percentage inhibition: − (“−” indicates less than 50% inhibition at 10 μM)
Human melanocortin (MC5); [125I]-NDP-αMSH
  A5 radioligand binding, percentage inhibition: − (“−” indicates less than 50% inhibition at 10 μM)
[1]; [125I]-S36057
  A6 radioligand binding, percentage inhibition: − (“−” indicates less than 50% inhibition at 10 μM)
Human μ-opioid (MOP); [3H]-Naloxone
  A7 radioligand binding, percentage inhibition: + (“+” indicates greater than 50% inhibition at 10 μM)
Human neurokinin (NK1); [125I]-Substance P
  A8 radioligand binding, percentage inhibition: − (“−” indicates less than 50% inhibition at 10 μM)
[2]; [125I]-PYY
  A9 radioligand binding, percentage inhibition: − (“−” indicates less than 50% inhibition at 10 μM)
Human opioid (ORL1); [125I]-Nociceptin
  A10 radioligand binding, percentage inhibition: − (“−” indicates less than 50% inhibition at 10 μM)
Mouse urotensin (mUR2); [125I]-Urotensin II
  A11 radioligand binding, percentage inhibition: − (“−” indicates less than 50% inhibition at 10 μM)

From patent US20080009418A1, “Selective Inhibitors” (Alchemia LTD., priority 2004, published 2008)
